Laboratory results published in patent US12729368B2, “Methods and compositions for generating oligodendrocyte progenitor cells” (Trailhead Biosystems Inc., priority 2022, dated 2026).
Several values for one entry are separate records, joined by “and”; a condition that tells them apart may be missing. Equal values may be shown once.

Experiments:
[1] = system: stage 2 early-OPCs; experiment: HD-DoE 8-factor model for stage 3 (version 1) on stage 2 early-OPCs; format: cell-based, human
Experimental: (§1) To further differentiate the cells to an oligodendrocyte progenitor identity, additional HD-DoE experiments were performed on the cells that were cultured in stage 1 and stage 2 differentiation media. After 3 days, gene expression of cells in different combinatorial conditions were investigated. At this time, we focused on maximal expression of signature oligodendrocyte progenitor genes such as SOX10, OLIG1 and PDGFRa (Goldman and Kuypers (2015) Development 142:3983-95; Marques et al. (2016) Science 352:1326-1329). In one 8-factor model, individual and combinatorial effects of LDN193189, SUN 11602, Activin A, Biotin, TTNPB, Isoproterenol, linoleic acid and T3+T4 were tested.
The same model was also optimized for maximum expression of PDGFRa at 3510.9. Two factor specifically, TTNPB and Linoleic acid determined the expression level of PDGFRa with factor contribution of 71.6 and 22.1, respectively (FIG. 17). […] The model was also optimized for highest expression of SOX10 at 18.8. In this optimization, TTNPB was the only input that could elevate the expression level of the selected gene (FIG. 18).
Dynamic profile analysis was utilized to explore combination sets that can optimize expression of all three selected genes. […] Since Activin A is the main compound regulating expression level of OLIG1, we investigated the changes in the plots after addition of Activin A and observed that expression level of SOX10 is still in the target range and PDGFRa is expressed at a high level too (2520).

[2] = system: human pluripotent stem cells; experiment: HD-DoE #1: 8-factor model, 3-day treatment of pluripotent stem cells, gene expression; format: cell-based; conditions: for impact on NKX2-2 and OLIG2 expression levels: dynamic profile, 8-factor model; for factor contribution: positive effect
Source text: This example utilizes a method of High-Dimensional Design of Experiments (HD-DoE), as previously described in Bukys et al. (2020) Iscience 23:101346. The method employs computerized design geometries to simultaneously test multiple process inputs and offers mathematical modeling of a deep effector/response space. The method allows for finding combinatorial signaling inputs that control a complex process, such as during cell differentiation. It allows testing of multiple plausible critical process parameters, as such parameters impact output responses, such as gene expression. Because gene expression provides hallmark features of the phenotype of, for example, a human cell, the method can be applied to identify, and understand, which signaling pathways control cell fate. In the current example, the HD-DOE method was applied with the intent to find conditions for induction of oligodendrocyte progenitor-expressed genes, directly from the pluripotent stem cell state.
Specifically, to develop a novel method to generate oligodendrocytes, the impact of agonists and antagonists of multiple signaling pathways (herein called effectors) were tested on expression of two sets of 53 pre-selected genes after a 3-day treatment. These effectors are small molecules that are commonly used during stepwise differentiation of stem cells to specific fates. Choice of the effectors were based on current literature on neural induction in anterior ectoderm and differentiation of stem cells to oligodendrocytes.
To test the effectors, experiments with at least 8 factors were designed that can assess the response of cells to 48 or more different combinations of effectors in a range of concentrations. To analyze the models, we focused on expression of genes expressed during early development of anterior neuroectoderm and oligodendrocytes including NKX2-2, OLIG2, OLIG1, and PDGFRA. The impact of each effector on gene expression level is defined by a parameter called factor contribution that is calculated for each effector during the modeling.
This model tested 8 factors: PD0325901, MK2206, TTNPB, SC79, MHY1485, ZM336372, AGN193109 and AZD3147.

[3] = system: human pluripotent stem cells; experiment: HD-DoE #2: 13-factor model, differentiation toward anterior neuroectoderm, gene expression; format: cell-based; conditions: model optimized for highest expression of FEZF2 at 4466; positive
Source text: To further enhance the conditions for oligodendrocyte differentiation from pluripotency, we performed an additional HD-DoE experiment. We obtained additional gene regulatory models that were used for preparation of a differentiation protocol. The basis of this was a 13-factor HD-DoE experiment with focus on initiation of differentiation of cells toward anterior neuroectoderm. In this model, we focused on expression of FEZF2 and OTX2.
As shown in the results summarized in FIG. 4, the model was optimized for highest expression of OTX2 at 12755.9. According to the model of high expression of OTX2, seven effectors had positive contribution including MK2206, PD0325901, CHIR99021, LDN193189, Go6983, PD173074 and BLU9931 with highest factor contribution of 22.2 for MK2206 and lowest factor contribution of 1.7 for PD173074 and BLU9931.
As shown in the results summarized in FIG. 5, the model was optimized for highest expression of FEZF2 at 4466. When the model was optimized for maximum expression level of FEZF2, three effectors including LDN193189 with factor contribution of 19.5, PD0325901 with factor contribution of 14.6 and MK2206 with factor contribution of 12.3 were common with previous condition and three new effectors including purmorphamine-500 nM, XAV939 and SC79 were introduced.
As shown in the results summarized in FIG. 6, to fine-tune the recipe and find the optimum combination of factors for high expression of both OTX2 and FEZF2, dynamic profiling analysis was done. […] Therefore, these two factors were added to the optimized culture recipe.

[4] = system: cells cultured in stage 1 and stage 2 differentiation media; experiment: HD-DoE 8-factor model for stage 3 (version 2); format: cell-based, human
Experimental: as §1, with “142:3983-95:” for “142:3983-95;”, “TTNPB (an RA agonist), CHIR99021, FGF-2, IGF-1, AGN193109, Purmorphamine, MHY1485 (a mTOR pathway agonist)” for “LDN193189, SUN 11602, Activin A, Biotin, TTNPB, Isoproterenol, linoleic acid”, “SC79 (an AKT pathway agonist)” for “T3+T4”, “tested to guide the cells toward a SOX10/PDGFRa positive population. […] CHIR99021 was also positive, with a factor contribution of 8.1 (FIG. 33).” for “tested.”
Other positive factors were IGF-1, with a factor contribution of 11.2, CHIR99021, with a factor contribution of 8.5 and TTNPB, with a factor contribution below 1 (FIG. 34).
To confirm the impact of TTNPB, FGF-2 and IGF-1 on a bigger scale, we investigated the expression profile of a larger group of genes defining late oligodendrocyte progenitor population, such as ID2, CSPG4, FYN, SOX8, PLP1 and BCAN (Perlman et al. (2020). Glia 68:1291-1303; Goldman and Kuypers (2015) Development 142:3983-95; van Tilborg et al. (2018) Glia 66:221-238) and neuronal genes such as NEUROD1, NEUROG1 and NEUROG2 in presence of IGF-1, FGF-2 or TTNPB.

[5] = system: stage 2 early-OPCs; experiment: HD-DoE 12-factor model for stage 3 (version 1) on stage 2 early-OPCs; format: cell-based, human
Experimental: In another model, the effects of Activin A and TTNPB along with LDN193189, MHY1485, PDGF-AA, AICAR, FGF2, CHIR99021, DBZ, MK2206, Purmorphamine and T3+T4 were tested on gene profile of differentiating cells. When this model was optimized for maximum expression of SOX10 at 54.7, we observed Activin A again had positive regulatory impact on its expression, with factor contribution of 4.7. Other positive factors included MK2206, with the highest factor contribution at 16.2, MHY1485 at 11.49, CHIR99021 at 9.6, DBZ at 9.3, FGF2 at 3.6 and PDGF-AA, with factor contribution less than 3 (FIG. 20).
In this model, we also investigated the conditions of expression of another important OPC gene, CSPG4 (Goldman and Kuypers (2015) Development 142:3983-95: van Tilborg et al. (2018) Glia 66:221-238).
Dynamic profile analysis was used to better assess the impact of the factors on our selected genes and find the combination set that can optimize their expression (FIG. 22). According to this analysis, even though Activin A has a positive effect on SOX10, it decreases level of PDGFRa and OLIG1. […] Moreover, SOX10 is one of the main transcription factors of oligodendrocytes, along with OLIG2 and NKX2-2, that has shown the potential to commit the stem cells to oligodendrocytes in reprogramming efforts (Wang et al. (2014) Proc Natl Acad Sci USA 111:E2885-94; Garciá-León et al. (2018) Stem Cell Reports 10:655-672). […] One of the main challenges of differentiating cells to oligodendrocyte fate is controlling the mixed population and increasing the purity of the culture by committing more cells to oligodendrocyte over neuronal identity. Therefore, DBZ was excluded from the final recipe.
At this point, we investigated the expression profile of a larger group of genes defining oligodendrocyte progenitor population at a later stage, including ID2, CNP and BCAN (Perlman et al. (2020). Glia 68:1291-1303; Goldman and Kuypers (2015) Development 142:3983-95). In this model, these genes were expressed at 1900, 660 and 44, respectively.

[6] = system: pre-OPCs; experiment: HD-DoE 12-factor model for stage 2 (version 1), 3 days on stage 1 pre-OPCs; format: cell-based, human; conditions: optimized for maximum expression of OLIG2 at 1841.6
Source text: To engineer the recipe of stage 2 of differentiation, cells were first cultured in the stage 1 media described in Example 1 and then treated with combinations of 8 or 12 factors for 3 days and the gene expression of cells in each condition was modeled. At this point, due to short duration of culture (only six days in vitro), we decided to focus on maximal expression of OLIG2 and maintenance of high expression of NKX2-2, while initiating expression of SOX10, OLIG1 and PDGFRa, to guide the cells towards oligodendrocyte fate (Emery and Lu (2015). Cold Spring Harb Perspect Biol. 7:a020461; Perlman et al. (2020). Glia 68:1291-1303; Goldman and. Kuypers (2015) Development 142:3983-95).
In one 12-factor model, the individual and combinatorial impact of SUN 11602 an agonist for FGF signaling pathway, FGF2, Activin A an activator of one of the receptors of TGF-b superfamily, A 8301, an inhibitor of TGF-b pathway, CHIR99021 a WNT activator, AGN193109 a RA antagonist, MK2206 an AKT inhibitor, Purmorphamine an agonist of SHH signaling pathway, AZD3147 an antagonist of mTOR pathway, MHY1485 an agonist of mTOR pathway, SC79 an agonist of AKT pathway and G06983 an inhibitor of PKC pathway, were tested.
Dynamic profile analysis was used to assess the expression levels of other genes of interests, such as NKX2-2, OLIG1 and SOX10, while the model is maximized for OLIG2. Activin A and SUN 11602 were brought down to zero due to their very low factor contribution. We observed when the model is optimized, the expression level of NKX2-2 is at 3000, PDGFRa at 1000, OLIG1 at 80 and SOX10 at 15 (FIG. 12).

[7] = optimized for maximum expression of OLIG1 at 256, positive impact
[8] = optimized for maximum expression of PDGFRa at 3510.9, positive
[9] = model optimized for maximum expression of PDGFRA
[10] = model optimized for maximum expression of NKX2-2

Cc1c(C)c(NCC(=O)N(C)C2CCN(Cc3ccc(C(N)=O)cc3)CC2)c(C)c(C)c1N [SUN 11602]
factor contribution [1, 7]: 3.7

CCCCC/C=C\C/C=C\CCCCCCCC(=O)O [Linoleic acid]
factor contribution [1, 8]: 22.1

Cc1ccc(NC(=O)c2cccc(N(C)C)c2)cc1NC(=O)c1ccc(O)cc1 [ZM336372]
impact on NKX2-2 and OLIG2 expression levels [2]: negatively impacting | factor contribution [2, 9]: < 1

O=C(NOC[C@H](O)CO)c1ccc(F)c(F)c1Nc1ccc(I)cc1F [PD0325901]
impact on NKX2-2 and OLIG2 expression levels [2]: negatively impacting | factor contribution [2, 9]: 30.6 and 30.05 | factor contribution [3]: 14.6

C/C(=C\c1ccc(C(=O)O)cc1)c1ccc2c(c1)C(C)(C)CCC2(C)C [TTNPB]
factor contribution [2, 10]: 31.3 | factor contribution [2, 9]: 49.01 | effect on late OPC genes and neuronal genes ([4]; factor plots vs concentration): negative effect of TTNPB on OPC genes and its positive effect on neuronal genes | factor contribution ([4]; optimized for SOX10 at 41.04, positive): 17.98 | factor contribution ([4]; optimized for maximum expression of PDGFRa at 853.4, positive): below 1 | factor contribution ([1]; optimized for highest expression of SOX10 at 18.8, positive): 8 | factor contribution [1, 7]: 19.11 and 19.1 | factor contribution [1, 8]: 71.6 | factor contribution ([5]; optimized for maximum expression of CSPG4 at 38.6, positive): 15.96 and 15.9

c1ccc2c(-c3cnn4cc(-c5ccc(N6CCNCC6)cc5)cnc34)ccnc2c1 [LDN193189]
factor contribution [3]: 19.5 | factor contribution [1, 7]: 10.8 | factor contribution ([5]; optimized for maximum expression of CSPG4 at 38.6, negative impact): 16.9

O=[N+]([O-])c1ccc(Nc2nc(N3CCOCC3)nc(N3CCOCC3)n2)cc1 [MHY1485]
factor contribution [2, 10]: 13.8 | factor contribution [2, 9]: 13.4 | factor contribution ([6]; negative impact): 22.5 | factor contribution ([5]; optimized for maximum expression of SOX10 at 54.7, positive): 11.49 and 11.5

CCOC(=O)C1=C(N)Oc2ccc(Cl)cc2C1C(C#N)C(=O)OCC (centres unmarked) [SC79]
factor contribution [2, 10]: 1.47 | factor contribution ([4]; optimized for SOX10 at 41.04, negative impact): 30.2 | factor contribution ([6]; positive regulatory effect): 3.6
